Patent EP4537846A2, “ANAVEX2-73 FOR THE TREATMENT OF ALZHEIMER S DISEASE” (priority 2017, dated 2018)

Experiments:
[1] = tested on: mild-to-moderate Alzheimer's disease patients; assay: Phase 2a clinical trial: EEG peak alpha frequency (PAF); assay type: in vivo; conditions: twelve patients, day 36 vs baseline
Procedure: The 36-day multicenter randomized clinical trial included both male and female mild-to-moderate Alzheimer's disease patients. ANAVEX2-73 was administered to twelve subjects as an add-on therapy to the donepezil current standard of care. ANAVEX2-73 was administered according to a two-period on-off-on cross-over dosing regimen in which the subjects were administered ANAVEX2-73 for 12 days (1st period) followed by a 12-day wash-out period before being administered ANAVEX2-73 for a second 12-day period (2nd period). Those subjects that were administered ANAVEX2-73 by oral administration during the 1st period were administered ANAVEX2-73 intravenously during the 2nd period, and vice versa. About half of the subjects were administered a 30 mg oral dosage form while the other half of subjects were administered a 50 mg oral dosage form. […]
Resting electroencephalographic (EEG) activity and event related potentials (EEG/ERP) were used to assess the cognitive effects of ANAVEX2-73 administration. Event related potentials (ERPs) are voltage changes time-locked to some physical or mental occurrence in ongoing electrical brain activity, as recorded by EEG. […]
Subjects were tested using a three-stimulus oddball paradigm. […] Electroencephalographic (EEG) activity was recorded from seven electrode sites (Fz, Cz, Pz, F3, P3, F4, and P4) of the international 10-20 system using a COGNISION™ Headset (Neuronetrix). […]

amyloid toxicity in mice = conditions: cited from earlier work
sigma-1 = sigma-1 (Homo sapiens, UniProt Q99720); conditions: sigma-1 receptor; 'is believed to bind'; cited from earlier work
[2] = tested on: muscarinic acetylcholine receptors; conditions: 'is believed to bind'; cited from earlier work
healthy male volunteers = assay: Randomized, placebo-controlled single ascending dose Phase 1 study; assay type: in vivo
Procedure: See Poster: A Phase 1 Dose Escalation Study to Investigate Safety, Tolerability, and Pharmacokinetics of ANAVEX2-73 in Healthy Male Subjects, CNS Summit 2014, Boca Raton, FL, by Ole Voges, Ingo Weigmann, Norman Bitterlich, Christoph Schindler and Christopher Missling. […] Based on the frequency and intensity of […] adverse events (TEAEs) the maximum tolerable dose (MTD) and the minimum intolerable dose (MID) were defined as 55 mg and 60 mg, respectively.

[3] = tested on: patients with Alzheimer's disease or presenting with the early signs of Alzheimer's disease; assay: Single-patient treatment examples with intermittent dosing regimen; assay type: in vivo; conditions: person
Excerpt: The following examples show uses of ANAVEX2-73 in the treatment of patients with Alzheimer's disease or presenting with the early signs of Alzheimer's disease. The clinical determination that a patient may have Alzheimer's disease or is presenting with early signs of Alzheimer's disease is well known in the art. By way of example, the following references (and all publications cited herein) are incorporated by reference herein in their entireties: Dementia: From Diagnosis to Management - A Functional Approach 1st Edition, Psychology Press (February 17, 2009); Clinician's Guide to Psychological Assessment and Testing: With Forms and Templates for Effective Practice 1st Edition, Springer Publishing Company (September 18, 2012); Neurodegener. Dis. Manag. 5(3), 191-201 (2015); Artif. Intell. Med. 64(1), 59-74 (2015); Clin. Chem. 60(12), 1585-1586 (2014); and Metabolism 64(3 Suppl 1), S47-50 (2014).

[4] = tested on: mild-to-moderate Alzheimer's disease patients; assay: Phase 2a clinical trial: safety profile; assay type: in vivo; conditions: during Phase 2a trials
Procedure: (§1) The 36-day multicenter randomized clinical trial included both male and female mild-to-moderate Alzheimer's disease patients. ANAVEX2-73 was administered to twelve subjects as an add-on therapy to the donepezil current standard of care. ANAVEX2-73 was administered according to a two-period on-off-on cross-over dosing regimen in which the subjects were administered ANAVEX2-73 for 12 days (1st period) followed by a 12-day wash-out period before being administered ANAVEX2-73 for a second 12-day period (2nd period). Those subjects that were administered ANAVEX2-73 by oral administration during the 1st period were administered ANAVEX2-73 intravenously during the 2nd period, and vice versa. About half of the subjects were administered a 30 mg oral dosage form while the other half of subjects were administered a 50 mg oral dosage form. The intravenous dosage was either 3 mg or 5 mg, with about half of the subjects administered 3 mg and the other half administered 5 mg.
(§2) 5-9, were achieved without any dose optimization. […] An additional 20 subjects will be studied during the remainder of the Phase 2a clinical trial. Phase 2b clinical trials, involving an additional 26-week extension of daily oral dosage administration of ANAVEX2-73 is on-going.

[5] = tested on: mild-to-moderate Alzheimer's disease patients; assay: Phase 2a clinical trial: event related potentials (ERP), auditory P300, three-stimulus oddball paradigm; assay type: in vivo
Procedure: as §1
Resting electroencephalographic (EEG) activity and event related potentials (EEG/ERP) were used to assess the cognitive effects of ANAVEX2-73 administration. Event related potentials (ERPs) are voltage changes time-locked to some physical or mental occurrence in ongoing electrical brain activity, as recorded by EEG. Event-related potentials (ERPs) provide a sensitive and reliable measure of the cognitive effects associated with early Alzheimer's disease. […] See for example, New Encycl. Neurosci., Oxford Academic Press, p. 13-18 (2009). For example, ERP tests on young presymptomatic individuals who carry mutations in the presenilin-1 and amyloid precursor protein genes show significant changes in ERP patterns years before the onset of behavioral symptoms and the development of Alzheimer's disease. See for example, Neurology 73, 1649-1655 (2009); Neurology 77, 469-475 (2011). […] For instance, ERP markers of cognitive function are increasingly altered in longitudinal studies on individuals with mild cognitive impairment (MCI) and Alzheimer's disease patients. See for example, Clin. Neurophysiol. 122, 1322-1326 (2011); Clin. Neurophysiol. 121, 194-199 (2010). […] See for example, Neurol. Neurochir. Pol. 35 Suppl 3, 37-43 (2001); Clin. Neuropharmacol. 25, 207-215 (2002); Neurosci. Biomed. Eng. 1, 34-39 (2013).
In particular, the auditory P300 component of the ERP has been widely applied in the study of age-related cognitive dysfunction because it is thought to reflect attentional and memory processes. Auditory P300 is a positive deflection occurring at about 300 ms from stimulus onset. It is generated by the activation of multiple neocortical and limbic regions. Auditory P300 has two functionally different components, an earlier P3a component that is maximal over frontocentral regions, and a later P3b component (hereafter "P300") that is maximal at the posterior scalp locations. See for example, Int. J. of Alzheimer's Dis. 2011, Article ID 653173, 1-7 (2011). P300 amplitude data collected as part of a double blind six month study for 15 patients with mild Alzheimer's disease on donepezil, as compared to a vitamin E baseline, has shown that P300 amplitude data correlates with ADAS-Cog and MMSE data for the same patients. See, Clin. Neuropharmacol. 25(4), 207-215 (2002).
Subjects were tested using a three-stimulus oddball paradigm. Stimuli comprised of standard tones (1000 Hz), target tones (2000 Hz) and unexpected distractor tones (white noise) that were played with probabilities of 0.75, 0.15, and 0.10. Tones were presented in pseudorandom order, so that target and distractor tones were never presented sequentially. Subjects were instructed to respond to the target stimuli by pressing a button with their dominant hand. For each test, between 300 and 400 stimuli were presented binaurally through insert ear phones at 70 dB volume. The tone duration for each stimulus was 100 ms with rise and fall times of 10 ms. The interstimulus interval was randomized between 1.5 and 2 s. […]

[6] = tested on: mild-to-moderate Alzheimer's disease patients; assay: Phase 2a clinical trial: MMSE and Cogstate scales; assay type: in vivo; conditions: preliminary; twelve subjects, on-off-on regimen
Procedure: as §1, §2

[7] = single ascending oral doses, healthy subjects

sigma-1, sequence (Q99720 whole entry): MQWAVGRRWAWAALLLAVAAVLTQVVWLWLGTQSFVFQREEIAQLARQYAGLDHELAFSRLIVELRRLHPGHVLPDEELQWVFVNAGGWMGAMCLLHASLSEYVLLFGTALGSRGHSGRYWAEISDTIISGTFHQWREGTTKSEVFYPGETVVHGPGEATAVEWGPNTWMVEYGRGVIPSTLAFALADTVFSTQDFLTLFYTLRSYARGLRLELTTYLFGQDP

In the case of CN(C)CC1CCOC1(c1ccccc1)c1ccccc1.Cl (stereo not drawn) [ANAVEX2-73, tetrahydro-N,N-dimethyl-2,2-diphenyl-3-furanmethanamine hydrochloride], the “peak alpha frequency (PAF)” value [1] is listed as “higher than the baseline measurement of PAF”, the “Aβ25-35-induced P-Akt decrease and P-GSK-3β increase” value (amyloid toxicity in mice; Aβ25-35 model) is listed as “blocked” and the “Aβ25-35-induced endogenous Aβ1-42 seeding” value (amyloid toxicity in mice; Aβ25-35 model) is listed as “decrease”. For the same molecule, the “hyperphosphorylation of Tau on physiological epitopes (AT-8 antibody clone) and on pathological epitopes (AT-100 clone)” value (amyloid toxicity in mice; Aβ25-35 model, in the dose-range tested) was “attenuated”, the “oxidative stress, caspases induction, cellular loss and learning and memory deficits” value (amyloid toxicity in mice; mice one week after i.c.v. injection of oligomeric Aβ25-35) was “attenuating” and the affinities (sigma-1) was “low micromolar range”. For the same molecule, the affinities [2] was “low micromolar range”, the safety and tolerability (healthy male volunteers; ascending single oral doses of 1 mg, 10 mg, 30 mg, 40 mg, 50 mg, and 55 mg, healthy subjects) was “safe and well tolerated” and the observed adverse events (healthy male volunteers; at highest doses) was “moderate and reversible dizziness and headache”. For the same molecule, the “minimum intolerable dose (MID)” value (healthy male volunteers; male, human, in vivo, po) was 60 mg, the “Blood pressure and resting heart rate and other clinical parameters such as vital signs and 12-lead electrocardiogram (ECG)” value (healthy male volunteers; [7]) was “did not show any clinically relevant or dose-dependent changes” and the “QT interval and QTcB” value (healthy male volunteers; [7]) was “did not reveal any clinically significant changes”. For the same molecule, the pharmacokinetics (healthy male volunteers; [7]) was “suitable for daily oral dosing”, the serious adverse events (healthy male volunteers; [7]) was “No serious adverse events occurred” and the “maximum tolerable dose (MTD)” value (healthy male volunteers; single oral dose, healthy male volunteers) was 55 mg. For the same molecule, the “loss of cognitive function” value ([3]; 3 mg intravenously, 5 days on / 20 days off, one year) was “stabilizes”, the “loss of cognitive function” value ([3]; 5 mg intravenously, 14 days on / 7 days off, one year) was “stabilizes” and the “loss of cognitive function” value ([3]; 30 mg oral, 10 days on / 10 days off, 6 months) was “stabilizes”. For the same molecule, the “loss of cognitive function” value ([3]; 50 mg oral, 10 days on / 20 days off) was “stabilizes”, the “loss of cognitive function” value ([3]; 50 mg oral, 14 days on / 7 days off, 6 months) was “stabilized” and the safety profile [4] was “consistent with the Phase 1 data”. The “patients with improved P300 signal” value ([5]; 10 out of the 12 patients studied) was 83%, the “Percentage Increase Over Baseline Data” value ([5]; P300 amplitude, Day 36 vs baseline, twelve patients, hydrochloride) was 38% and the “percent P300 amplitude change compared to historical data for patients administered donepezil” value ([5]; after 1 month vs donepezil after 6 months) was “greater”. The “P300 amplitude change compared to historical data for patients administered donepezil” value ([5]; day 36 (1 month) vs donepezil at the 1 month time point) was “about four times higher”, the “False Alarms” value ([5]; target detection task, Day 36, twelve patients (baseline 2.67 ± 1.12)) was 0.64 ± 0.26% and the “Button Press Accuracy” value ([5]; target detection task, Day 36, twelve patients (baseline 86.2 ± 4.47)) was 87.5 ± 4.01%. The “Median Reaction Time” value ([5]; target detection task, Day 36, twelve patients (baseline 593 ± 33.0)) was 534 ± 42.0 ms, the “P300 ERP wave data” value ([5]; twelve patients, day 36 vs baseline, on-off-on regimen (30 or 50 mg oral, 3 or 5 mg i.v.), add-on to donepezil) was “improved measured cognitive performance as compared to the baseline data” and the “Mini Mental State Examination (MMSE) and Cogstate scale changes” value [6] was “consistent with the observed trend of the cognitive EEG/ERP effect”.
